The target of the assay is T1, CFTR (Homo sapiens, UniProt P13569, DEL508-508).
T1 construct: endogenous in cells; host or cells: primary human bronchial epithelial cells, F508del/MF genotype
Put plainly: HBE Assay: Ussing chamber assay of CFTR-mediated short-circuit currents in F508del/MF-HBE cells with 1 μM Ivacaftor. To be noted: with 1 μM Ivacaftor, 20% human serum; for HBE Activity at 10 μM: single fixed concentration of 10 μM; for EC50 / HBE Max Activity: 18-24 hours. It is filed as cell-based. In a few lines:
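F508del/MF-HBE cells at air-liquid interface >14 days were incubated 18-24 h at 37° C with corrector (concentration range or fixed 10 μM) plus 1 μM Ivacaftor in 20% human serum, compounds kept throughout. Ussing chamber, Vhold=0 mV, 37° C, apical amiloride 30 μM; ISC (μA/cm^2) from peak 20 μM forskolin response to steady state after CFTR inhibitor cocktail.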

Molecules are shown by their SMILES.

T1 sequence (P13569 with tags, fused parts or gaps DEL508-508): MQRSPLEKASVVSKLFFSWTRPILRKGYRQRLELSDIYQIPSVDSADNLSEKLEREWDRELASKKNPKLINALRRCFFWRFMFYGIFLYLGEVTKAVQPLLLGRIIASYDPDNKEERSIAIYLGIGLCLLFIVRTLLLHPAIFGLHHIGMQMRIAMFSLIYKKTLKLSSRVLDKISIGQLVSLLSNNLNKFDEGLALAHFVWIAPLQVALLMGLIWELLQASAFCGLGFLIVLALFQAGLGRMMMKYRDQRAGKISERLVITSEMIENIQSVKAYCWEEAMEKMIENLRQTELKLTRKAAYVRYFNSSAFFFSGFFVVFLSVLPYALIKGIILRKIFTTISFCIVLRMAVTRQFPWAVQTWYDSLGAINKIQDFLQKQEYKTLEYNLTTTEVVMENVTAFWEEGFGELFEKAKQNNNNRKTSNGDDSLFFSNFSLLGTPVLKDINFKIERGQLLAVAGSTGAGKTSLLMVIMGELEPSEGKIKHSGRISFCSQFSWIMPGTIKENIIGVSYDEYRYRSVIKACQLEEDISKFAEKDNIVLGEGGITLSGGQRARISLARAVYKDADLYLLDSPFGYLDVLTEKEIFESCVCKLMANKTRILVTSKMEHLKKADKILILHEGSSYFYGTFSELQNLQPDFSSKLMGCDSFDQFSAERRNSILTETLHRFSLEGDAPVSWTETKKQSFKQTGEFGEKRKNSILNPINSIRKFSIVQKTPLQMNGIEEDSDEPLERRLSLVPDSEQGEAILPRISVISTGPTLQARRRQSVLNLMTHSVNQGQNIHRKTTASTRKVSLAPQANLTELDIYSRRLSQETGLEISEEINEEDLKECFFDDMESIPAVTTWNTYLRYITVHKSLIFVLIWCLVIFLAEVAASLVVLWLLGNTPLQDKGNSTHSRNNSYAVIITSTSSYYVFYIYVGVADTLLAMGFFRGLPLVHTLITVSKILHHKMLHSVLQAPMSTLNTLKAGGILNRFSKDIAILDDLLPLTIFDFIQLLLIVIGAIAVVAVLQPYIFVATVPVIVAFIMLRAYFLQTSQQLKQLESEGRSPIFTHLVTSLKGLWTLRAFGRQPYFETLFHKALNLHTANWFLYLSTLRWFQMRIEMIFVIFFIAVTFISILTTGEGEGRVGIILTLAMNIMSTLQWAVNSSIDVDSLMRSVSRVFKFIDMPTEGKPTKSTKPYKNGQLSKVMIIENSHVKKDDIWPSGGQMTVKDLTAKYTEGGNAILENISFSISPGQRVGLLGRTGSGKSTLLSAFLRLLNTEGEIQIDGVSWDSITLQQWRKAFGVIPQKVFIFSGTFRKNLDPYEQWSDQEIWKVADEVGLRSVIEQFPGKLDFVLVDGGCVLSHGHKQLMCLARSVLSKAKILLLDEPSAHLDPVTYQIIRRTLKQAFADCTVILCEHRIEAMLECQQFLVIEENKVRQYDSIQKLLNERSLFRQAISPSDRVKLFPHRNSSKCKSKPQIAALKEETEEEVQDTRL

As for `Cc1cccc(CC(C)C)c1-c1nc2nc(c1C)OC[C@@H](CC(C)(C)C)N(Cc1ncc(N(C)CC(C)(C)C)cn1)C(=O)c1cccc(c1)S(=O)(=O)N2` (atropisomer, axis not shown; (M)) [Compound 210, (5M,11R)-11-(2,2-dimethylpropyl)-12-({5-[(2,2-dimethylpropyl)(methyl)amino]pyrimidin-2-yl}methyl)-7-methyl-6-[2-methyl-6-(2-methylpropyl)phenyl]-9-oxa-2λ^6-thia-3,5,12,19-tetraazatricyclo[12.3.1.14,8]nonadeca-1(17),4(19),5,7,14(18),15-hexaene-2,2,13-trione], the “HBE Activity at 10 μM” value was “+++ (+++ is >600%)”.

Turning to `Cc1cccc(CC(C)(C)C)c1-c1nc2nc(c1C)OC[C@@H](CC(C)(C)C)N(Cc1ncc(N3CCC(C)(C)C3)cn1)C(=O)c1cccc(c1)S(=O)(=O)N2` (atropisomer, axis not shown; (M)) [Compound 214, (5M,11R)-11-(2,2-dimethylpropyl)-6-[2-(2,2-dimethylpropyl)-6-methylphenyl]-12-{[5-(3,3-dimethylpyrrolidin-1-yl)pyrimidin-2-yl]methyl}-7-methyl-9-oxa-2λ^6-thia-3,5,12,19-tetraazatricyclo[12.3.1.14,8]nonadeca-1(17),4(19),5,7,14(18),15-hexaene-2,2,13-trione], the “HBE Activity at 10 μM” value is given as “++ (++ is 30-60%)”.

For `Cc1cccc(CC2CCOCC2)c1-c1nc2nc(c1C)OC[C@@H](CC(C)(C)C)N(Cc1ncc(N3CCOCC3)cn1)C(=O)c1cccc(c1)S(=O)(=O)N2` (atropisomer, axis not shown; (M)) [Compound 217, (5M,11R)-11-(2,2-dimethylpropyl)-7-methyl-6-{2-methyl-6-[(oxan-4-yl)methyl]phenyl}-12-{[5-(morpholin-4-yl)pyrimidin-2-yl]methyl}-9-oxa-2λ^6-thia-3,5,12,19-tetraazatricyclo[12.3.1.14,8]nonadeca-1(17),4(19),5,7,14(18),15-hexaene-2,2,13-trione], the “HBE Activity at 10 μM” value is “++ (++ is 30-60%)”.

As for `Cc1cccc(COC(C)C)c1-c1nc2nc(c1C)OC[C@@H](CC(C)(C)C)N(Cc1ncc(N3CCC(C)(C)C3)cn1)C(=O)c1cccc(c1)S(=O)(=O)N2` (atropisomer, axis not shown; (M)) [Compound 220, (5M,11R)-11-(2,2-dimethylpropyl)-12-{[5-(3,3-dimethylpyrrolidin-1-yl)pyrimidin-2-yl]methyl}-7-methyl-6-{2-methyl-6-[(propan-2-yloxy)methyl]phenyl}-9-oxa-2λ^6-thia-3,5,12,19-tetraazatricyclo[12.3.1.14,8]nonadeca-1(17),4(19),5,7,14(18),15-hexaene-2,2,13-trione], the “HBE Activity at 10 μM” value was “++ (++ is 30-60%)”.

As to `Cc1cccc(C2CC2)c1-c1nc2nc(c1C)OC[C@@H](CC(C)(C)C)N(Cc1ncc(N3CCOCC3)cn1)C(=O)c1cccc(c1)S(=O)(=O)N2` (atropisomer, axis not shown; (P)) [Compound 216, (5P,11R)-6-(2-Cyclopropyl-6-methyl-phenyl)-11-(2,2-dimethylpropyl)-7-methyl-12-[(5-morpholinopyrimidin-2-yl)methyl]-2,2-dioxo-9-oxa-2λ^6-thia-3,5,12,19-tetrazatricyclo[12.3.1.14,8]nonadeca-1(18),4(19),5,7,14,16-hexaen-13-one], the EC50 – broadly, the concentration at which the effect is half-maximal – is < 1000 nM and the “HBE Max Activity” value is recorded as “+++ (+++ is >600%)”.

Take `Cc1cccc(CC(C)C)c1-c1nc2nc(c1C)OC[C@@H](CC(C)C)N(Cc1ncc(CC(C)C)cn1)C(=O)c1cccc(c1)S(=O)(=O)N2` (atropisomer, axis not shown; (P)) [Compound 219, (5P,11R)-11-isobutyl-6-(2-isobutyl-6-methyl-phenyl)-12-[(5-isobutylpyrimidin-2-yl)methyl]-7-methyl-2,2-dioxo-9-oxa-2^6-thia-3,5,12,19-tetrazatricyclo[12.3.1.14,8]nonadeca-1(18),4(19),5,7,14,16-hexaen-13-one]: the half-maximal effective concentration (EC50) was < 1000 nM and the “HBE Max Activity” value was “+++ (+++ is >600%)”.

`Cc1cccc(CC2CCCCC2)c1-c1nc2nc(c1C)OC[C@@H](CC(C)(C)C)N(Cc1ccc(N3CCOCC3)cn1)C(=O)c1cccc(c1)S(=O)(=O)N2` (single isomer, unassigned) [Compound 206]: the concentration giving a half-maximal response (EC50) was < 1000 nM and the “HBE Max Activity” value is reported as “+++ (+++ is >600%)”.

For the molecule `Cc1cccc(CC2CCCCC2)c1-c1nc2nc(c1C)OC[C@@H](CC(C)(C)C)N(Cc1ccc(N3CCOCC3)cn1)C(=O)c1cccc(c1)S(=O)(=O)N2` (single isomer, unassigned) [Compound 207], the 50% effective concentration (EC50) was < 1000 nM and the “HBE Max Activity” value was “+++ (+++ is >600%)”.

Consider `Cc1cccc(C(C)C)c1-c1nc2nc(c1C)OC[C@@H](CC(C)(C)C)N(Cc1ncc(N3CCOCC3)cn1)C(=O)c1cccc(c1)S(=O)(=O)N2` (single isomer, unassigned) [Compound 208], for which the EC50 is < 1000 nM and the “HBE Max Activity” value is given as “+++ (+++ is >600%)”.

`Cc1cccc(C(C)C)c1-c1nc2nc(c1C)OC[C@@H](CC(C)(C)C)N(Cc1ncc(N3CCOCC3)cn1)C(=O)c1cccc(c1)S(=O)(=O)N2` (single isomer, unassigned) [Compound 209]: the concentration giving a half-maximal response (EC50) is < 1000 nM and the “HBE Max Activity” value was “+++ (+++ is >600%)”.

Regarding `Cc1cccc(CC(C)C)c1-c1nc2nc(c1C)OC[C@@H](CC(C)(C)C)N(Cc1ncc(N(C)CC(C)(C)C)cn1)C(=O)c1cccc(c1)S(=O)(=O)N2` (single isomer, unassigned) [Compound 211], the half-maximal effective concentration (EC50) was < 1000 nM and the “HBE Max Activity” value is on record as “+++ (+++ is >600%)”.

On to `Cc1cccc(CC(C)C)c1-c1nc2nc(c1C(F)(F)F)OC[C@@H](CC(C)(C)C)N(Cc1ncc(N3CCOCC3)cn1)C(=O)c1cccc(c1)S(=O)(=O)N2` (single isomer, unassigned) [Compound 212], for which the 50% effective concentration (EC50) is < 1000 nM and the “HBE Max Activity” value is recorded as “+++ (+++ is >600%)”.

In the case of `Cc1cccc(CC(C)C)c1-c1nc2nc(c1C(F)(F)F)OC[C@@H](CC(C)(C)C)N(Cc1ncc(N3CCOCC3)cn1)C(=O)c1cccc(c1)S(=O)(=O)N2` (single isomer, unassigned) [Compound 213], the “HBE Activity at 10 μM” value is “+++ (+++ is >600%)”.

Regarding `Cc1cccc(CC(C)(C)C)c1-c1nc2nc(c1C)OC[C@@H](CC(C)(C)C)N(Cc1ncc(N3CCC(C)(C)C3)cn1)C(=O)c1cccc(c1)S(=O)(=O)N2` (single isomer, unassigned) [Compound 215], the EC50 was < 1000 nM and the “HBE Max Activity” value is reported as “+++ (+++ is >600%)”.

With `Cc1cccc(CC2CCOCC2)c1-c1nc2nc(c1C)OC[C@@H](CC(C)(C)C)N(Cc1ncc(N3CCOCC3)cn1)C(=O)c1cccc(c1)S(=O)(=O)N2` (single isomer, unassigned) [Compound 218], the EC50 was < 1000 nM and the “HBE Max Activity” value is given as “+++ (+++ is >600%)”.

As to `Cc1cccc(COC(C)C)c1-c1nc2nc(c1C)OC[C@@H](CC(C)(C)C)N(Cc1ncc(N3CCC(C)(C)C3)cn1)C(=O)c1cccc(c1)S(=O)(=O)N2` (single isomer, unassigned) [Compound 221], the EC50 was < 1000 nM and the “HBE Max Activity” value is “+++ (+++ is >600%)”.

`Cc1cccc(C)c1-c1nc2nc(c1C)OC[C@@H](CC(C)(C)C)N(c1cnn(C)c1Br)C(=O)c1cccc(c1)S(=O)(=O)N2` [Compound 56, (11R)-12-(5-Bromo-1-methyl-pyrazol-4-yl)-6-(2,6-dimethylphenyl)-11-(2,2-dimethylpropyl)-7-methyl-2,2-dioxo-9-oxa-2λ^6-thia-3,5,12,19-tetrazatricyclo[12.3.1.14,8]nonadeca-1(18),4(19),5,7,14,16-hexaen-13-one]: the EC50 is < 1000 nM and the “HBE Max Activity” value is reported as “+++ (+++ is >600%)”.

`Cc1cccc(C)c1-c1nc2nc(c1C)OC[C@@H](CC(C)(C)C)N(Cc1ccc(N3CCCCC3)cn1)C(=O)c1cccc(c1)S(=O)(=O)N2` [Compound 85]: the EC50 was < 1000 nM and the “HBE Max Activity” value is reported as “+++ (+++ is >600%)”.

Turning to `Cc1c2nc(nc1-c1ccccc1C(C)(C)C)NS(=O)(=O)c1cccc(c1)C(=O)N(Cc1ccc(N3CCOCC3)cn1)[C@H](CC(C)(C)C)CO2` [Compound 181], the concentration for a half-maximal effect (EC50) was < 1000 nM and the “HBE Max Activity” value is reported as “+++ (+++ is >600%)”.

Turning to `Cc1c2nc(nc1-c1ccccc1C(C)C)NS(=O)(=O)c1cccc(c1)C(=O)N(Cc1ccc(N3CCOCC3)cn1)[C@H](CC(C)(C)C)CO2` [Compound 182], the EC50 was < 1000 nM and the “HBE Max Activity” value is recorded as “+++ (+++ is >600%)”.

Turning to `Cc1cccc(C)c1-c1nc2nc(c1C)OC[C@@H](CC(C)(C)C)N(Cc1ncc(N3CCC(C)(C)C3)cn1)C(=O)c1cccc(c1)S(=O)(=O)N2` [Compound 191], the 50% effective concentration (EC50) is < 1000 nM and the “HBE Max Activity” value is reported as “+++ (+++ is >600%)”.

For `Cc1cccc(C)c1-c1nc2nc(c1C)OC[C@@H](CC(C)(C)C)N(Cc1ncc(N3CCC(C)(C)CC3)cn1)C(=O)c1cccc(c1)S(=O)(=O)N2` [Compound 192], the “HBE Activity at 10 μM” value is on record as “+++ (+++ is >600%)”.

Regarding `Cc1cccc(C)c1-c1nc2nc(c1C)OC[C@@H](CC(C)C)N(Cc1ncc(OC(C)C)cn1)C(=O)c1cccc(c1)S(=O)(=O)N2` [Compound 193], the EC50 was < 1000 nM and the “HBE Max Activity” value was “+++ (+++ is >600%)”.

For `Cc1cccc(C)c1-c1nc2nc(c1C)OC[C@@H](C(C)C)N(Cc1cncc(N(C)CC(C)(C)C)n1)C(=O)c1cccc(c1)S(=O)(=O)N2` [Compound 195], the EC50 was < 1000 nM and the “HBE Max Activity” value is “+++ (+++ is >600%)”.

Consider `Cc1cccc(C)c1-c1nc2nc(c1C)OC[C@@H](C(C)C)N(Cc1ncc(OC(C)C)cn1)C(=O)c1cccc(c1)S(=O)(=O)N2` [Compound 197], for which the “HBE Activity at 10 μM” value is given as “+++ (+++ is >600%)”.

In the case of `Cc1cccc(C)c1-c1nc2nc(c1C)OC[C@@H](CC(C)C)N(Cc1ncc(N3CCC(C)(C)CC3)cn1)C(=O)c1cccc(c1)S(=O)(=O)N2` [Compound 198], the EC50 was < 1000 nM and the “HBE Max Activity” value was “+++ (+++ is >600%)”.

These data come from patent publication US20230374038A1, “MODULATORS OF CYSTIC FIBROSIS TRANSMEMBRANE CONDUCTANCE REGULATOR” (VERTEX PHARMACEUTICALS INCORPORATED, priority 2020, published 2023).
